Values of other authors, collected in patent US20220001014A1 (priority 2020, published 2022).
Structures can show the parent of a compound that is named as a salt.

Tests used:
[1] = target: ACE (Homo sapiens, UniProt P12821)
[2] = target: Neprilysin (Homo sapiens, UniProt P08473)
[3] = target: T1, Bradykinin B2 (Homo sapiens, UniProt P30411); settings: 18 μg/kg/h iv for 6 h; sodium-deplete normotensive and hypertensive subjects
T1 construct: host or cells: subjects in vivo (endogenous receptor)
T1 sequence (P30411 1-391): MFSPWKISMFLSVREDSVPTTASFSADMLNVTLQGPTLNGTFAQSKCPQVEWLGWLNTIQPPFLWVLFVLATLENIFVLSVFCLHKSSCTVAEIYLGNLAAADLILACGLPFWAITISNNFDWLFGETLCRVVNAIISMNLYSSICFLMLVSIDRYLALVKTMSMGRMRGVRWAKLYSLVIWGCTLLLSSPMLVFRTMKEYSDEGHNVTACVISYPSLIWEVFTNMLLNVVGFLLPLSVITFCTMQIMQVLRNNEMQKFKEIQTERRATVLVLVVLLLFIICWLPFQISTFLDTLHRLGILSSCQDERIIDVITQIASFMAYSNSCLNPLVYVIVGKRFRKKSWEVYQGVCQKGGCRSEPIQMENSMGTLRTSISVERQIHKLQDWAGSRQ

[4] = in vivo
[5] = system: SARS-CoV; settings: mice; dosed at concentrations similar to the clinically achievable concentration in humans; reduced from 100%
[6] = system: SARS-COV2; settings: recent in vitro studies
[7] = system: SARS-CoV; settings: lung epithelial cell lines
[8] = injection; LPS-induced acute lung injury

ACE, sequence (P12821 30-1306, species assumed): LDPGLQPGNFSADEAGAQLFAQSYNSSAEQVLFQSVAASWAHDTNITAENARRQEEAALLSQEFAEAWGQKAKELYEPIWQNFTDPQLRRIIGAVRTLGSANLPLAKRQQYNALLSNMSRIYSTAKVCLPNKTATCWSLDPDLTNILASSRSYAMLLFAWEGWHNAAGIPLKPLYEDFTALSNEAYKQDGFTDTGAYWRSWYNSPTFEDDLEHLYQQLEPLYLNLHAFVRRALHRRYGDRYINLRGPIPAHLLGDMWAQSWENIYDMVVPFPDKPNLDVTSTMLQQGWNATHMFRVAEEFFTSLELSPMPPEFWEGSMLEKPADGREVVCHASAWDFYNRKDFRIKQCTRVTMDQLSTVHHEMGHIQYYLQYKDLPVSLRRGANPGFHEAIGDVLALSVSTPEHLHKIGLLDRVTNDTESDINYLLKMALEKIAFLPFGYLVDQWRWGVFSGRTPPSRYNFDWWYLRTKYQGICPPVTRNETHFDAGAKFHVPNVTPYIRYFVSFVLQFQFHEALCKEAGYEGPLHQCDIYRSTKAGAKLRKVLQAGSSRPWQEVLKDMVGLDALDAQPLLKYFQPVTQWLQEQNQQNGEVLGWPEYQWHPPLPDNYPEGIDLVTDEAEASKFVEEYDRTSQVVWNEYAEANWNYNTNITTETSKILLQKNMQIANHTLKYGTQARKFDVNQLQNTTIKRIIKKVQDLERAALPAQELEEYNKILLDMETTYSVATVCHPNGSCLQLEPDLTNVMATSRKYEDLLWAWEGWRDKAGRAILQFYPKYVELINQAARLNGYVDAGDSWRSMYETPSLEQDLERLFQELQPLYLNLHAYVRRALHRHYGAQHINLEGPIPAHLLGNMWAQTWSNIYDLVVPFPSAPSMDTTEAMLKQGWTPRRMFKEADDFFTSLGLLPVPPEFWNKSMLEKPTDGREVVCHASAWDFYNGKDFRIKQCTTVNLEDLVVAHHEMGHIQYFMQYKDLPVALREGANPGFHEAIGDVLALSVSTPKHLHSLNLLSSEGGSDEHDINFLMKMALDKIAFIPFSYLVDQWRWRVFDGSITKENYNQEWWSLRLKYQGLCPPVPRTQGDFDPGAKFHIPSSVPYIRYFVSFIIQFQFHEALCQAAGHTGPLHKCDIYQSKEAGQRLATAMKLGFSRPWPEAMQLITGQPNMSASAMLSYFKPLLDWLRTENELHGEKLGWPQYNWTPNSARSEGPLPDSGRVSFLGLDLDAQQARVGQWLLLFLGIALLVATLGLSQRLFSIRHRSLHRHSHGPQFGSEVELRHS
Neprilysin, sequence (P08473 whole entry, species assumed): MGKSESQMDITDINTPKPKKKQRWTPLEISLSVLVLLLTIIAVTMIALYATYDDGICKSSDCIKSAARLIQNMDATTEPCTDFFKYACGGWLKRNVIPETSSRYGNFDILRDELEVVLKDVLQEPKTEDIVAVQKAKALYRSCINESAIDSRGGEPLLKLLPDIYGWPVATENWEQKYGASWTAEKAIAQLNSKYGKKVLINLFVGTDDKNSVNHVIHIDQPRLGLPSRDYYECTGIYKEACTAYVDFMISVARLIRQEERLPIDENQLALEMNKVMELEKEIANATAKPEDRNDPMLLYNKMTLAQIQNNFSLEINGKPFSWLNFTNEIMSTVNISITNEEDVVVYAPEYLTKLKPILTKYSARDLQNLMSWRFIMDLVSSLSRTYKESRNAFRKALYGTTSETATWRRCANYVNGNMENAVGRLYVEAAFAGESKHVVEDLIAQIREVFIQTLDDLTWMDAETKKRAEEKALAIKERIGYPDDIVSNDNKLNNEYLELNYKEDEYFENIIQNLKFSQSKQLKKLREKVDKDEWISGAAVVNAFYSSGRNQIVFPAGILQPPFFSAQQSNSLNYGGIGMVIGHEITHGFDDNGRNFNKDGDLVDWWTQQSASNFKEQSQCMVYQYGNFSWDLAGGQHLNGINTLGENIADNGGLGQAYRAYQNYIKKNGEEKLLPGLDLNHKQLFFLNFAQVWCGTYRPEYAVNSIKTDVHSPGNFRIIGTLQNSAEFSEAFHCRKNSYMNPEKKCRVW

CC(=O)SC[C@@H](Cc1ccccc1)C(=O)NCC(=O)OCc1ccccc1 [Ecadotril]
ACE inhibition [1]: 23%
Neprilysin inhibition [2]: 99%

NC(N)=NCCC[C@@H](N)C(=O)N[C@@H](CCCN=C(N)N)C(=O)N1CCC[C@H]1C(=O)N1C[C@H](O)C[C@H]1C(=O)NCC(=O)N[C@@H](Cc1cccs1)C(=O)N[C@@H](CO)C(=O)N1Cc2ccccc2C[C@@H]1C(=O)N1[C@H](C(=O)N[C@@H](CCCN=C(N)N)C(=O)O)C[C@@H]2CCCC[C@@H]21 [Icatibant]
attenuation of hypotensive effects of acute or chronic valsartan [3]: did not attenuate

NCCCC[C@H](N[C@@H](CCc1ccccc1)C(=O)O)C(=O)N1CCC[C@H]1C(=O)O [Lisinopril]
ACE inhibition [1]: 83%

O=C(N[C@H]1CCS[C@H]2CCC[C@@H](C(=O)O)N2C1=O)[C@@H](S)Cc1ccccc1 [Omapatrilat]
ACE inhibition [1]: > 90%
Neprilysin inhibition [2]: 53%

Cn1c(=O)cc(N2CCC[C@@H](N)C2)n(Cc2ccccc2C#N)c1=O [alogliptin]
joint pains [4]: can cause severe joint pains

CN(C)C(=O)COC(=O)Cc1ccc(OC(=O)c2ccc(NC(=N)N)cc2)cc1 [camostat mesylate, Camostat mesylate]
mortality following SARS-CoV infection [5]: 30-35%
inhibition of SARS-COV2 viral entry [6]: did not fully inhibit
entry of viruses into host cells [7]: left some residual entry of viruses

CC#CCn1c(N2CCC[C@@H](N)C2)nc2c1c(=O)n(Cc1nc(C)c3ccccc3n1)c(=O)n2C [linagliptin]
joint pains [4]: can cause severe joint pains

N[C@@H](CC(=O)N1CCn2c(nnc2C(F)(F)F)C1)Cc1cc(F)c(F)cc1F [sitagliptin]
joint pains [4]: can cause severe joint pains

rhACE2: rhACE2, injected in LPS-induced acute lung injury
lung injury and inflammation [8]: improved lung injury and inflammation
